Source: patent US20240092770A1, “Heterocycle RMB39 Modulators” (Recursion Pharmaceuticals, Inc., priority 2022, published 2024)

Biological target: RBM39 and the DCAF15 complex (RBM39-Flag / His-DCAF15-DDA1-DDB1) (Homo sapiens (Human), UniProt Q14498+Q66K64)
Experiment: DCAF15 RBM39 complex formation TR-FRET assay
Type: binding
Details: RBM39(R150-D331) 3xFlag 50 nM, His-DCAF15-DDA1-DDB1 10 nM, 60 min room temperature
Experimental: A TR-FRET assay was used to assess the effect of compounds disclosed herein on the interaction between RBM39 and the DCAF15 complex. Test compounds were dissolved to form a 10 mM DMSO stock solution. A 45 μL aliquot of the stock solution was transferred to a 384 pp-plate, and a threefold, 8-point dilution was performed via transferring 15 μL compound solution into 30 μL of DMSO. The plates were then spun at room temperature at 1,000 RPM for 1 minute.
A 30 nL aliquot of the diluted compound was transferred to a 384 well plate, which was incubated at room temperature for 15 minutes. Next, Solutions 1, 2, and 3 were prepared as described in the below tables. A 5 μL aliquot of Solution 2 was added to each well, followed by 5 μL of Solution 3 to start the reaction. The final volume of each well was 10 μL. The plates were incubated at room temperature for 60 minutes, and then read.
Next, an RBM39 (R150-D331) 3× Flag used in TR-FRET assay was prepared:
Recombinant RBM39 protein is composed of the R1R2 of RBM39 (aa 150 to 331; UniProt: Q14498). The coding sequence was sub-cloned into pGEX4T-1-RBM39-flag vector, expressed as a GST-fusion protein with N-terminal TEV protease cleavage site. A 3× Flag tag was added to the C-terminal of R1R2 used in a FRET assay.

| SMILES | EC50 |
| --- | --- |
| Cc1ccc(NS(=O)(=O)c2nc(C(=O)NCCO)cs2)c2[nH]cc(C#N)c12 [Compound 74] | 1450 nM |
| Cc1cnc(S(=O)(=O)Nc2ccc(C)c3c(C#N)c[nH]c23)s1 [Compound 9] | 436 nM |
| N#Cc1c[nH]c2c(NS(=O)(=O)c3cscn3)cccc12 [Compound 64] | 3440 nM |
| Cc1ccc(NS(=O)(=O)c2nc(CCO)cs2)c2[nH]cc(C#N)c12 [Compound 41] | 363 nM |
| CNC(=O)c1cnc(S(=O)(=O)Nc2ccc(C)c3c(C#N)c[nH]c23)s1 [Compound 126] | 960 nM |
| Cc1ccc(NS(=O)(=O)c2cncs2)c2[nH]cc(C#N)c12 [Compound 42] | 55.2 nM |
| Cc1ncc(S(=O)(=O)Nc2ccc(F)c3c(C#N)c[nH]c23)s1 [Compound 201] | 391 nM |
| Cc1ncc(S(=O)(=O)Nc2ccc(C)c3c(C#N)c[nH]c23)o1 [Compound 98] | 196 nM |
| N#Cc1c[nH]c2c(NS(=O)(=O)c3cnns3)cccc12 [Compound 255] | 1160 nM |
| Cc1ccc(NS(=O)(=O)c2nc(C(=O)N3CCCCC3)cs2)c2[nH]cc(C#N)c12 [Compound 77] | 828 nM |
| Cc1nc(S(=O)(=O)Nc2cccc3c(C#N)c[nH]c23)cs1 [Compound 153] | 940 nM |
| CCN(CC)C(=O)c1csc(S(=O)(=O)Nc2ccc(C)c3c(C#N)c[nH]c23)n1 [Compound 128] | 650 nM |
| Cc1ccc(NS(=O)(=O)c2c[nH]c(C(C)C)n2)c2[nH]cc(C#N)c12 [Compound 39] | 520 nM |
| Cc1nc(S(=O)(=O)Nc2ccc(C)c3c(C#N)c[nH]c23)c(C)s1 [Compound 82] | 1440 nM |
| N#Cc1c[nH]c2c(NS(=O)(=O)c3nc(C(F)(F)F)cs3)cccc12 [Compound 134] | 1760 nM |
| Cc1ccc(NS(=O)(=O)c2ncc(C(=O)NCCO)s2)c2[nH]cc(C#N)c12 [Compound 129] | 1820 nM |
| Cc1ccc(NS(=O)(=O)c2nc(C(N)=O)cs2)c2[nH]cc(C#N)c12 [Compound 72] | 432 nM |
| Cc1ccc(NS(=O)(=O)c2nc(C(=O)N3CCNCC3)cs2)c2[nH]cc(C#N)c12 [Compound 78] | 3250 nM |
| N#Cc1c[nH]c2c(NS(=O)(=O)c3cnc(C4CC4)o3)cccc12 [Compound 107, N-(3-cyano-1H-indol-7-yl)-2-cyclopropyl-1,3-oxazole-5-sulfonamide] | 325 nM |
| CCc1nc(S(=O)(=O)Nc2ccc(C)c3c(C#N)c[nH]c23)c[nH]1 [Compound 8, N-(3-cyano-4-methyl-1H-indol-7-yl)-2-ethyl-1H-imidazole-4-sulfonamide] | 787 nM |
| Cc1sc(S(=O)(=O)Nc2ccc(C)c3c(C#N)c[nH]c23)nc1C#N [Compound 10] | 75.7 nM |
| COCCNC(=O)c1csc(S(=O)(=O)Nc2ccc(C)c3c(C#N)c[nH]c23)n1 [Compound 75] | 2180 nM |
| Cc1ccc(NS(=O)(=O)c2ncc(CCO)s2)c2[nH]cc(C#N)c12 [Compound 44] | 904 nM |
| Cc1ccc(NS(=O)(=O)c2nccs2)c2[nH]cc(C#N)c12 [Compound 2] | 1030 nM |
| Cc1ccc(NS(=O)(=O)c2ncc(C(=O)N3CCC(O)C3)s2)c2[nH]cc(C#N)c12 (centres unmarked) [Compound 143] | 2150 nM |
| N#Cc1c[nH]c2c(NS(=O)(=O)c3cc(C4CC4)no3)cccc12 [Compound 87] | 277 nM |
| Cc1nc(S(=O)(=O)Nc2ccc(C)c3c(C#N)c[nH]c23)cs1 [Compound 152] | 281 nM |

| SMILES | EC50 |
| --- | --- |
| CCN(CC)C(=O)c1csc(S(=O)(=O)Nc2ccc(C)c3c(C#N)c[nH]c23)n1 [Compound 73] | 738 nM |
| N#Cc1c[nH]c2c(NS(=O)(=O)c3nc(C(F)(F)F)cs3)cc(F)cc12 [Compound 150] | 1250 nM |
| CCc1nc(S(=O)(=O)Nc2ccc(F)c3c(C#N)c[nH]c23)c[nH]1 [Compound 147] | 2030 nM |
| CC(C)(C)c1cc(S(=O)(=O)Nc2cccc3c(C#N)c[nH]c23)on1 [Compound 104] | 128 nM |
| Cc1ncc(S(=O)(=O)Nc2ccc(C)c3c(C#N)c[nH]c23)s1 [Compound 48] | 125 nM |
| CCc1ncc(S(=O)(=O)Nc2ccc(C)c3c(C#N)c[nH]c23)o1 [Compound 118] | 168 nM |
| Cc1nc(Br)sc1S(=O)(=O)Nc1ccc(C)c2c(C#N)c[nH]c12 [Compound 99] | 518 nM |
| Cc1ccc(NS(=O)(=O)c2cnc(C(F)F)s2)c2[nH]cc(C#N)c12 [Compound 117] | 99.6 nM |
| Cc1ccc(NS(=O)(=O)c2cc(C3CC3)no2)c2[nH]cc(C#N)c12 [Compound 81] | 55.6 nM |
| N#Cc1c[nH]c2c(NS(=O)(=O)c3cnc(C(F)(F)F)s3)cccc12 [Compound 34] | 301 nM |
| N#Cc1c[nH]c2c(NS(=O)(=O)c3csc(C(F)F)n3)cccc12 [Compound 105] | 299 nM |
| Cc1ccc(NS(=O)(=O)c2cnc(C(C)(C)C)o2)c2[nH]cc(C#N)c12 [Compound 100] | 364 nM |
| Cc1ccc(NS(=O)(=O)c2cnc(Br)s2)c2[nH]cc(C#N)c12 [Compound 40] | 275 nM |
| Cc1ccc(NS(=O)(=O)c2ncc(C(N)=O)s2)c2[nH]cc(C#N)c12 [Compound 141] | 919 nM |
| O=S(=O)(Nc1cccc2c(C(F)(F)F)c[nH]c12)c1cncs1 [Compound 186] | 258 nM |
| CC(C)(O)c1ncc(S(=O)(=O)Nc2cccc3c(C#N)c[nH]c23)s1 [Compound 202] | 241 nM |
| Cc1ccc(NS(=O)(=O)c2ncc(-c3ccnnc3)s2)c2[nH]cc(C#N)c12 [Compound 68] | 708 nM |
| CC(C)c1cc(S(=O)(=O)Nc2cccc3c(C#N)c[nH]c23)on1 [Compound 138] | 423 nM |
| CCCn1cnc(S(=O)(=O)Nc2ccc(C)c3c(C#N)c[nH]c23)c1 [Compound 162] | 591 nM |
| CCc1nc(S(=O)(=O)Nc2ccc(C)c3c(C#N)c[nH]c23)cn1CC(=O)NC1CC1 [Compound 139] | 6070 nM |
| Cc1ccc(NS(=O)(=O)c2cc(C(C)C)no2)c2[nH]cc(C#N)c12 [Compound 135] | 47 nM |
| Cc1ccc(NS(=O)(=O)c2cnc(C3CC3)o2)c2[nH]cc(C#N)c12 [Compound 97] | 105 nM |
| Cc1ccc(NS(=O)(=O)c2nc(C(=O)N3CCN(C)CC3)cs2)c2[nH]cc(C#N)c12 [Compound 79] | 9710 nM |
| N#Cc1c[nH]c2c(NS(=O)(=O)c3csc(C(F)(F)F)n3)cccc12 [Compound 49] | 190 nM |
| N#Cc1c[nH]c2c(NS(=O)(=O)c3cnc(N4CCOCC4)s3)cccc12 [Compound 205] | 632 nM |
| CCc1nc(S(=O)(=O)Nc2cccc3c(Cl)c[nH]c23)c[nH]1 [Compound 158] | 433 nM |
